Laboratory results taken from publication PMC12301034, “Design and Synthesis of Boronic Chalcones with Dual Anticancer and Anti-Inflammatory Activity” (Molecules, 2025).

What was measured:
[1] = Partition coefficient (Log P), OECD 117 HPLC method
SCC-25 cells = assay: MTT cytotoxicity assay on SCC-25 cells; format: cell-based, human; conditions: for IC50: Homo sapiens, SCC-25, MTT, 24 h incubation, mean SEM of three experiments; for SI = IC50 NOK-si/IC50 SCC-25: selectivity index
Description: (§1) The SCC-25 (ATCC® CRL-1628™), Detroit-562 (ATCC® CCL-138™), and THP-1 (ATCC® TIB-202™) cells were purchased from Rio de Janeiro Cell Bank (Duque de Caxias, Brazil), and NOK-si was kindly provided by Prof. Carlos Rossa from the School of Dentistry—UNESP. All the cells were cultivated according to standard conditions. Human colorectal adenocarcinoma HCT116 cell lines (ATCC® CCL-247™) expressing p53 and its p53-null isogenic derivative (HCT116 p53^−/−) were provided by B. Vogelstein (The Johns Hopkins Kimmel Cancer Center, Baltimore, MD, USA).
(§2) Cells (NOK-si, SCC-25, and Detroit-562) were grown in a DMEM medium (Dulbecco’s Modified Eagle Medium), supplemented according to the needs of each lineage, as recommended by its cell banks, with 2 mM L-glutamine, 10% or 20% fetal bovine serum (FBS), 1% antibiotic–antimycotic solution (5 mg/mL penicillin, 5 mg/mL streptomycin, and 10 mg/mL neomycin), 4.5 g/L of glucose, and 3.7 g/L of sodium bicarbonate (NaHCO3). All cell lines were cultured in flasks at 37 °C in 5% carbon dioxide (CO2) and 95% of relative humidity. The assays were conducted between the third- and the seventh-cell passage, with sub-cultures every 3–4 days to maintain exponential growth. The cell viability was checked using the trypan blue dye exclusion assay for all experiments, where over 95% of the cells were viable at the beginning of the tests. NOK-si, SCC-25, and Detroit-562 were initially thawed and cultured in 25 cm^2 cell culture flasks. Cell growth was monitored using a microscope, and the culture medium was changed periodically. Upon reaching confluency, cell dissociation was achieved by adding 5 mL of trypsin (Sigma-Aldrich, St Louis, MO, USA) and incubating the bottles in a CO2 incubator for 10 min. Subsequently, the cells were transferred to 15 mL Falcon tubes and centrifuged at 2000 rpm for 10 min. Cell counting was performed using a Countess II FL automated cell counter (ThermoFischer, Waltham, MA, USA). The cells were seeded at a density of 30,000 cells per well in 96-well plates. The plates were then incubated at 37 °C in 5% CO2 for 24 h. Following this, test compounds were incubated for another 24 h at 10 different concentrations: 50, 25, 12.5, 6.25, 3.12, 1.56, 0.78, 0.39, 0.19, and 0.097 µg/mL. After the specified time, MTT reagent (3 mg/mL) (Sigma-Aldrich, St Louis, MO, USA) dissolved in phenol-free RPMI 1640 was added and incubated for 4 h. The formed MTT crystals were solubilized using 2-propanol P.A. (Sigma-Aldrich, St Louis, MO, USA) with agitation. Absorbance was read at 562 nm using an EZ Read 400 microplate reader (Biochrom, Cambridge, UK) and ADAP 2.0 Biochrom software (version 2.0). IC50 values and graphs were calculated using Excel and Prism software (version 10.4.1). The MTT assay results were evaluated for normality using the Shapiro–Wilk test, followed by one-way ANOVA with Tukey’s post hoc test at a significance level of 5%.

NOK-si cells = assay: MTT cytotoxicity assay on NOK-si normal oral keratinocytes; format: cell-based; conditions: Keratinocyte, 24 h incubation, read-out: NOK-si IC50
Description: as §1, §2

HCT116 p53^+/+ cells = assay: SRB cytotoxicity assay on HCT116 p53+/+ cells; format: cell-based, human; conditions: Homo sapiens, HCT-116, 48 h of treatment
Description: as §1
(§3) HCT p53^+/+ and HCT p53^−/− cell lines were seeded in 96-well plates, with a concentration of 5000 cells/well, and allowed to adhere overnight. Afterwards, they were treated with serial dilutions of the compounds for an additional 48 h (compounds were prepared at 30 mM, in DMSO, and tested with a starting concentration of 50μM and 15 μM). Cells passed then through a series of essential steps (fixation with 10% trichloroacetic acid, for 1 h at 4 °C; staining with 0.4% sulforhodamine B (SRB); wash with 1% acetic acid; and solubilization with 10 mM Tris-Base); subsequently, absorbance was measured at 510 nm in a microplate reader (Biotek Instruments Inc., Synergy, MX, USA). IC50 values were determined using GraphPad Prism software, Version 7.0 (La Jolla, CA, USA).

HCT116 p53^−/− cells = assay: SRB cytotoxicity assay on HCT116 p53-/- cells; format: cell-based, human; conditions: Homo sapiens, HCT-116, 48 h of treatment
Description: as §1, §3

[2] = reference compounds for calibration curve; cited from earlier work
Detroit-562 cells = assay: MTT cytotoxicity assay on Detroit-562 cells; format: cell-based; conditions: Homo sapiens; MTT, 24 h incubation, Detroit-562 metastatic pharyngeal cancer model
Description: as §1
Cells (NOK-si, SCC-25, and Detroit-562) were grown in a DMEM medium (Dulbecco’s Modified Eagle Medium), supplemented according to the needs of each lineage, as recommended by its cell banks, with 2 mM L-glutamine, 10% or 20% fetal bovine serum (FBS), 1% antibiotic–antimycotic solution (5 mg/mL penicillin, 5 mg/mL streptomycin, and 10 mg/mL neomycin), 4.5 g/L of glucose, and 3.7 g/L of sodium bicarbonate (NaHCO3). All cell lines were cultured in flasks at 37 °C in 5% carbon dioxide (CO2) and 95% of relative humidity. The assays were conducted between the third- and the seventh-cell passage, with sub-cultures every 3–4 days to maintain exponential growth. The cell viability was checked using the trypan blue dye exclusion assay for all experiments, where over 95% of the cells were viable at the beginning of the tests. NOK-si, SCC-25, and Detroit-562 were initially thawed and cultured in 25 cm^2 cell culture flasks. Cell growth was monitored using a microscope, and the culture medium was changed periodically. […] Absorbance was read at 562 nm using an EZ Read 400 microplate reader (Biochrom, Cambridge, UK) and ADAP 2.0 Biochrom software (version 2.0). IC50 values and graphs were calculated using Excel and Prism software (version 10.4.1). The MTT assay results were evaluated for normality using the Shapiro–Wilk test, followed by one-way ANOVA with Tukey’s post hoc test at a significance level of 5%.

TNF = assay: Anti-inflammatory assay, TNF in LPS-stimulated THP-1 cells (CBA); format: cell-based, human; conditions: 2 and 4 µg/mL, 24 h
Protocol: For this assay, THP-1 (BCRJ cód. 0234) cells were cultured in Roswell Park Memorial Institute (RPMI-1640, Sigma-Aldrich; Saint Louis, MO, USA) media supplemented with 2 mM L-glutamine, 1 mM sodium pyruvate, 1.50 g/L of sodium bicarbonate, and 10% fetal bovine serum. For obtaining Macrophage-like cells, 250,000 cells per well were plated in a 24-well cell culture plate. A total of 20 ng/mL of Forbol 12-miristato-13-acetato (PMA) was added to each well, and the cells were incubated for 48 h at 37 °C with 5% CO2. After the 48 h, the wells were washed with 1X PBS, and fresh RPMI-1640 media was added. The cells were then incubated for 24 h at 37 °C and 5% CO2. For the cell’s stimulations, after the 24 h, the well was washed with PBS and fresh RPMI1640 media without fetal bovine serum added. For the positive controls of the assay, 3 wells were stimulated with LPS (1 ng/µL) diluted in the same volume and media used for the drugs stimulation. Two different concentrations (2 and 4 µg/mL) were evaluated for each molecule, which were determined to be non-cytotoxic through a cell viability assay. After a 24 h period, the supernatant was removed and used in the cytokine quantification assay. A kit for inflammatory cytokines, BD® Cytometric Bead Array CBA Human Inflammatory, was employed for this assay, containing the following human cytokines: IL-8, IL-1β, IL-6, and TNF. Standard cytokines were prepared in 9 different concentrations: 1:256, 1:128, 1:64, 1:32, 1:16, 1:8, 1:4, 1:2, and 1:1 (“top standard”). Analysis was performed using a Flow Cytometer FACS Aria Fusion BD (Bioscence, Houston, TX, USA). Data analysis was conducted using Prism software (version 10.4.1).

IL-1β = assay: Anti-inflammatory assay, IL-1β in LPS-stimulated THP-1 cells (CBA); format: cell-based, human; conditions: 2 and 4 µg/mL, 24 h
Protocol: (§4) For this assay, THP-1 (BCRJ cód. 0234) cells were cultured in Roswell Park Memorial Institute (RPMI-1640, Sigma-Aldrich; Saint Louis, MO, USA) media supplemented with 2 mM L-glutamine, 1 mM sodium pyruvate, 1.50 g/L of sodium bicarbonate, and 10% fetal bovine serum. For obtaining Macrophage-like cells, 250,000 cells per well were plated in a 24-well cell culture plate. A total of 20 ng/mL of Forbol 12-miristato-13-acetato (PMA) was added to each well, and the cells were incubated for 48 h at 37 °C with 5% CO2. After the 48 h, the wells were washed with 1X PBS, and fresh RPMI-1640 media was added. The cells were then incubated for 24 h at 37 °C and 5% CO2. For the cell’s stimulations, after the 24 h, the well was washed with PBS and fresh RPMI1640 media without fetal bovine serum added. For the positive controls of the assay, 3 wells were stimulated with LPS (1 ng/µL) diluted in the same volume and media used for the drugs stimulation. Two different concentrations (2 and 4 µg/mL) were evaluated for each molecule, which were determined to be non-cytotoxic through a cell viability assay. After a 24 h period, the supernatant was removed and used in the cytokine quantification assay. A kit for inflammatory cytokines, BD® Cytometric Bead Array CBA Human Inflammatory, was employed for this assay, containing the following human cytokines: IL-8, IL-1β, IL-6, and TNF. […]

IL-6 = assay: Anti-inflammatory assay, IL-6 in LPS-stimulated THP-1 cells (CBA); format: cell-based, human; conditions: 2 and 4 µg/mL, 24 h
Protocol: as §4

| chromatographic logP [1] | SMILES | IC50 (SCC-25 cells) | SI = IC50 NOK-si/IC50 SCC-25 (SCC-25 cells) | CC50 (NOK-si cells) | IC50 (HCT116 p53^+/+ cells) | IC50 (HCT116 p53^−/− cells) | log P of reference compounds [2] | IC50 (Detroit-562 cells) | reduction of TNF levels (TNF) | reduction of IL-1β levels (IL-1β) | reduction of IL-6 levels (IL-6) |
| --- | --- | --- | --- | --- | --- | --- | --- | --- | --- | --- | --- |
| 1.81 | O=C(/C=C/c1cccc(B(O)O)c1)c1cccc(O)c1 [Compound 4, (E)-(3-(3-(3-hydroxyphenyl)-3-oxoprop-1-en-1-yl)phenyl)boronic acid] | 9.8 ± 1 µM | 1.88 | 18.5 ± 4.43 µM | 2.33 ± 0.2 µM | 2.16 ± 0.25 µM | – | 31.6 ± 3.13 µM | – | – | – |
| 1.64 | O=C(/C=C/c1ccc(B(O)O)cc1)c1cccc(O)c1 [Compound 10, (E)-(4-(3-(3-hydroxyphenyl)-3-oxoprop-1-en-1-yl)phenyl)boronic acid] | 43.8 ± 4.43 µM | 0.59 | 25.7 ± 11.6 µM | – | – | – | – | – | – | – |

The remaining lines, values behind:

| SMILES | chromatographic logP [1] | IC50 (SCC-25 cells) | SI = IC50 NOK-si/IC50 SCC-25 (SCC-25 cells) | CC50 (NOK-si cells) | IC50 (HCT116 p53^+/+ cells) | IC50 (HCT116 p53^−/− cells) | log P of reference compounds [2] | IC50 (Detroit-562 cells) | reduction of TNF levels (TNF) | reduction of IL-1β levels (IL-1β) | reduction of IL-6 levels (IL-6) |
| --- | --- | --- | --- | --- | --- | --- | --- | --- | --- | --- | --- |
| O=C(/C=C/c1cccc(B(O)O)c1)c1ccccc1 [Compound 2, (E)-(3-(3-oxo-3-phenylprop-1-en-1-yl)phenyl)boronic acid] | 2.68 | 134 ± 12.3 µM | 1.00 | 133 ± 3.25 µM | 4.4 ± 0.53 µM | 3.63 ± 0.47 µM | – | – | – | – | – |
| Nc1ccccc1 [aniline] | – | – | – | – | – | – | 0.9 | – | – | – | – |
| Clc1ccc(C(c2ccc(Cl)cc2)C(Cl)(Cl)Cl)cc1 [DDT] | – | – | – | – | – | – | 6.5 | – | – | – | – |
| COc1cccc(C(=O)/C=C/c2ccccc2)c1 [Compound 1] | 3.73 | 24.9 ± 1.09 µM | 4.08 | 101.5 ± 0.17 µM | 6.83 ± 1.15 µM | 7.56 ± 0.4 µM | – | – | lower effectiveness | comparable efficacy in reducing cytokine levels relative to LPS-stimulated cells | lower effectiveness |
| COc1cccc(C(=O)/C=C/c2ccc(B(O)O)cc2)c1 [Compound 11, (E)-(4-(3-(3-methoxyphenyl)-3-oxoprop-1-en-1-yl)phenyl)boronic acid] | 2.81 | 65.9 ± 11 µM | 1.46 | 96.2 ± 21.3 µM | 3.96 ± 0.55 µM | 3.8 ± 0.26 µM | – | – | – | – | – |
